Read-outs that look alike come from different tables or passages of the source. *1 amine or outer side, *2 acyl side, *3 side chain or, on linkers, in order; H or OH if unused. Bridges are numbered along the chain shown (N, C = ends). Roman numbers before positions name the chains, in order. [ ]: non-standard residue; d: D form. BMOE = O=C1CC([*:1])C(=O)N1CCN1C(=O)CC([*:2])C1=O; Aib = CC(C)(N)C(=O)O
How the values were obtained:
normal B-cells = assay: Cytotoxicity to normal B-cells from healthy volunteers, MTS assay; assay type: cell-based, human; settings: normal B-cells from healthy volunteers, 72 hours, read-out: Normal ED50
Text: (§1) CLL was diagnosed according to the NCl Working Group criteria (Hallek et al. 2008). Healthy volunteers and CLL patients from the Duke University and Durham Va. Medical Centers were enrolled in IRB-approved research protocols to collect clinical data and blood. Subjects gave signed informed consent prior to phlebotomy, in accordance with the Declaration of Helsinki. Blood was collected from participants into heparin-tubes, and CLL cells were purified as noted before (Weinberg et al. 2007). Briefly, CLL cells were isolated using the RosetteSep® B cell enrichment cocktail (catalog #15024/15064; Stem Cell Technologies, Vancouver, BC, Canada) according to the manufacturer's directions. This method yielded CLL cell purity of greater than 95% CD5+CD19+ B-cells as determined by flow cytometry. Normal B-lymphocytes were isolated using the EasySep® B-cell enrichment cocktail (catalog #15024/15064; Stem Cell Technologies, Vancouver, BC, Canada) according to the manufacturer's directions, with a purity of >94% CD 19+ lymphocytes.
(§2) For cytotoxicity assays, 3×10^6 CLL cells/well were cultured in 24 well tissue culture plates in 1.5 mL of Hybridoma SFM™ (Gibco, Long Island, N.Y.) as described by Levesque et al. (Levesque et al. 2001) (Levesque et al. 2003) All cultures were incubated at 37° C., 5% CO2 in air. […] (Levesque et al. 2003)
(§3) Based on the induction of apoptosis in CLL cells, we tested several analogs of COG449 for cytotoxicity against CLL cells freshly isolated from a number of patients and against normal B-cells from healthy volunteers (Table 4). Cells were cultured with the agents for 72 hours, and the viable cells were assessed for cytotoxicity using the MTS assay. […] We also analyzed the effect of shRNA-mediated knockdown of SET on the growth of B-cell lymphoma cell lines.

CLL cells = assay: CLL cell cytotoxicity, MTS assay; assay type: cell-based, human; settings: 72 hours
Procedure: as §2, §3

Ramos cells = assay: Growth inhibition / cytotoxicity in Ramos NHL cells; assay type: cell-based, human
Procedure: FIG. 6: SET antagonism is cytotoxic to CLL cells and inhibits NHL cell growth in vitro. (A) Dose response curves for COG445 treatment of CLL cells from 7 patients or normal B-cells from 5 volunteers. (B) Dose response curves for COG449 treatment on CLL cells from 7 patients. (C) Raji NHL cells were transduced with SET shRNA or control lentivirus and knockdown was assessed by Western blotting from two samples of each.
FIG. 7: Cytotoxicity of COG449 can be modulated by a PP2A inhibitor in Ramos cells. Ramos cells were pretreated for 5 minutes with or without 1 nM OA before treatment with 1 μM COG449. After 24 hours, cytotoxicity was assessed using the […] assay reagent to detect viable cells.
as §3

[1] = Cytotoxicity to normal B-cells from healthy volunteers, MTS assay; assay type: cell-based, human; settings: human
Text: as §1, §2, §3

SET (α and β isoforms) = settings: 10 μM biotin-labeled peptide, pull-down on beads, Western blot
SET (α and β isoforms), sequence (Q01105 38-290 limits assumed): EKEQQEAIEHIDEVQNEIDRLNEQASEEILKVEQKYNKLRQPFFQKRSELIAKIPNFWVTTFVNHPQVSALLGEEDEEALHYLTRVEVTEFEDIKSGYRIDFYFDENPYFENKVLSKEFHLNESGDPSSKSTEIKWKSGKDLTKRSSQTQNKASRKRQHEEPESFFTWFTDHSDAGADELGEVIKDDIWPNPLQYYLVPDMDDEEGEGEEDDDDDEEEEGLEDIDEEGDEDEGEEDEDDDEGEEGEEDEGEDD
Procedure: Complexes bound to Neutravidin-Agarose (NA) beads were then detected by Western blotting. Lane 1 contains 20 μg of cell lysate as a loading control. […] Lysates were incubated with biotin reagents for 1 hr before addition of NA beads and then incubated for an additional hour. After rigorous washing, the beads were boiled in SDS PAGE buffer, separated by PAGE and blotted to nitrocellulose.
CLL cells were lysed in NP40 buffer (50 mM Tris, 0.2% NP40, 150 mM NaCl) by a single freeze thaw cycle. Lysate protein concentration was adjusted to 5 mg/mL. Streptavidin agarose beads (1 mL) were washed with 10 mL of NP40 buffer, and 0.5 mL of beads was added to 1 mL of extract. ABeads were then collected by filtration through a disposable mini-column (Bio-Rad), and the flow-through extract was collected for analysis. Following washing with 100 mL of chilled NP40 buffer, the beads were removed from the column, collected by centrifugation, and 75 μL of 4× Laemmli buffer was added. Beads were vortexed and heated to 90° C. for 10 min to ensure that all proteins were released from the beads. Proteins were separated by SDS PAGE and Western blotting was used to determine if the COG133 and COG112 peptides bound to both isoforms of SET from a CLL patient sample.

[2] = CLL cells freshly isolated from patients, read-out: CLL ED50
[3] = CLL cells from 7 patients, read-out: ED50 of cytotoxicity to CLL cells

In the case of “AS(Aib)LRKL(Aib)KRLL (Ac-AS[Aib]LRKL[Aib]KRLL-NH2) [COG1410, Aib = aminoisobutyric acid]”, the EC50 (normal B-cells) is reported as > 20 µM and the EC50 (CLL cells; [2]) is reported as 5.7 ± 3 µM.
In the case of oakadaic acid [reference compound], the “cytotoxicity in Ramos cells” value (Ramos cells; 1 nM OA alone, 24 hours) is reported as “not cytotoxic”.
With LLRKRLKRLHSALRVRL [COG056] the EC50 (normal B-cells) was > 20 µM and the EC50 (CLL cells; [2]) was 12.9 ± 4.6 µM.
In the case of “I: Ac-RQIKIWFQNRRMKWKKCLRVRLASHLRKLRKRLL-NH2 / II: Ac-RQIKIWFQNRRMKWKKCLRVRLASHLRKLRKRLL-NH2 (disulfide I:17-II:17 (inferred)) [COG445]”, the EC50 (normal B-cells) is reported as > 10 µM, the EC50 at 72 h [1] is reported as ≥ 10 µM and the EC50 (CLL cells; [3]) is reported as 0.11 µM.
With LRVRLASHLRKLRKRLL [COG133] the “binding to SET isoforms in CLL cell lysate” value (SET (α and β isoforms)) was “binds to both SET isoforms”, the EC50 (normal B-cells) was > 20 µM and the EC50 (CLL cells; [2]) was 4.4 ± 1.5 µM.
For “RQIKIWFQNRRMKWKK-C-LRVRLASHLRKLRKRLL [COG112]”, the “binding to SET isoforms in CLL cell lysate” value (SET (α and β isoforms)) was “binds to both SET isoforms”, the EC50 (normal B-cells) was > 20 µM and the EC50 (CLL cells; [2]) was 1.4 ± 0.7 µM.
For “I: Ac-RQIKIWFQNRRMKWKKCLRVRLASHLRKLRKRLL-NH2 / II: Ac-RQIKIWFQNRRMKWKKCLRVRLASHLRKLRKRLL-NH2 (linker I:17-II:17 via BMOE) [COG449]”, the EC50 (CLL cells; [3]) was 0.103 µM, the “cytotoxicity in Ramos cells” value (Ramos cells; 1 μM COG449, 24 hours) was “robust cytotoxic effect” and the “cytotoxicity in Ramos cells with PP2A inhibitor” value (Ramos cells; 1 μM COG449 after pretreatment with 1 nM OA, 24 hours) was “partially counteracted by treatment with OA”.

From patent publication US8623601B2, “Methods of diagnosing cancer” (Cognosci, Inc., priority 2011, dated 2014)
